Assay results published in patent US9283234B2, “Compositions and methods for suppressing endometrial proliferation” (REPROS THERAPEUTICS INC., priority 2006, dated 2016).

Tests used:
[1] = target: T1, glucocorticoid receptor (rbGR) (Oryctolagus cuniculus, UniProt P59667); assay: glucocorticoid receptor binding; design: species or system rabbit
T1 construct: cytosol containing PR or GR were prepared in TEGMD buffer; from tissue; host or cells: thymus of estradiol-primed immature rabbits (cytosol)
T1 sequence (P59667 1-772): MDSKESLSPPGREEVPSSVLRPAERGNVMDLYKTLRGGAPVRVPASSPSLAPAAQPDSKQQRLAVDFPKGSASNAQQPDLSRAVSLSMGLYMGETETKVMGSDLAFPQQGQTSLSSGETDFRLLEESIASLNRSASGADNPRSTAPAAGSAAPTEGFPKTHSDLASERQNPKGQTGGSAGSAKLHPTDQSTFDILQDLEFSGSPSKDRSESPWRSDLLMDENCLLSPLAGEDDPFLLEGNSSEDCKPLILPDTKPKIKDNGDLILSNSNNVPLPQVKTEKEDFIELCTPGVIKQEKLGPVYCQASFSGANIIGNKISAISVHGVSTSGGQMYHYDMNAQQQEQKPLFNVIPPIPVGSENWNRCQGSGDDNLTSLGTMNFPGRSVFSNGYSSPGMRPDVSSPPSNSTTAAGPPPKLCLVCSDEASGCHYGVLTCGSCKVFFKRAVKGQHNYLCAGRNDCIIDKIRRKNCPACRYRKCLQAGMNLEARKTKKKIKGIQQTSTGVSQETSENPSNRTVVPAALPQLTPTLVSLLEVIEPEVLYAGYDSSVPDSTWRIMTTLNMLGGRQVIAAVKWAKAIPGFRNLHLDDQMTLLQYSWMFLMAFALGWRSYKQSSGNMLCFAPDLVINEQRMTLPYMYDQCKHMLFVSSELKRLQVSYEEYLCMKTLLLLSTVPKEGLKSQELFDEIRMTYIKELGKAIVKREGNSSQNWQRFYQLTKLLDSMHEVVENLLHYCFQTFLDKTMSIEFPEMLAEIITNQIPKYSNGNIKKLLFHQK
Method: Certain antiprogestins were tested in receptor-binding assays for their ability to bind rabbit progesterone receptor (rbPR) and glucocorticoid receptor (rbGR). […] For PR binding, the cytosol was incubated with 6 nM 1,2-[^3H]progesterone (50.0 Ci/mmole) and competitors were added at concentrations from 2 to 100 nM. For binding to GR, the cytosol was incubated with 6 nM 6,7-[^3H]-dexamethasone (40 Ci/mmol) and test compounds were added at concentrations from 20 to 100 nM. After overnight incubation at 4 C, bound and unbound [^3H] steroids were separated by addition of dextran-coated charcoal and centrifugation at 2100×g for 15 min at 4 C. Supernatants containing the [^3H]-steroid receptor complexes were decanted into vials containing 4 ml OPTIFLUOR scintillation fluid (Packard Instrument Co.), vortexed, equilibrated in a liquid scintillation counter for 30 minutes and then counted for 2 minutes. […] The standards for the PR and GR assays were unlabeled progesterone and dexamethasone, respectively.

[2] = estrogenic, androgenic, anti-estrogenic and anti-androgenic activities
Source text: These methods include receptor binding and in vivo bioassays such as anti-McGinty, anti-Clauberg, glucocorticoid, estrogenic, androgenic, anti-glucocorticoid (AG), anti-estrogen, and anti-androgen activities as well as post-coital and anti-ovulatory activities where in the leading compounds of the instant invention are used as a reference.

[3] = Measuring serum cortisol in rats; type: in vivo; conditions: 10 mg/kg, 21 days of chronic dosing, FIG. 1
[4] = system: rabbit progesterone receptor (rbPR) and glucocorticoid receptor (rbGR); assay: Receptor-binding assays, ratio of relative binding affinities rbPR/rbGR; conditions: ratio of relative binding affinities (RBA = EC50 of standard/EC50 of test compound x100) for rbPR and rbGR; standards progesterone, dexamethasone
Method: Certain antiprogestins were tested in receptor-binding assays for their ability to bind rabbit progesterone receptor (rbPR) and glucocorticoid receptor (rbGR). Briefly, cytosol containing PR or GR were prepared in TEGMD buffer (10 mM Tris, pH 7.2, 1.5 mM EDTA, 0.2 mM sodium molybdate, 10% glycerol, 1 mM DTT) from uterus or thymus, respectively, of estradiol-primed immature rabbits. For PR binding, the cytosol was incubated with 6 nM 1,2-[^3H]progesterone (50.0 Ci/mmole) and competitors were added at concentrations from 2 to 100 nM. For binding to GR, the cytosol was incubated with 6 nM 6,7-[^3H]-dexamethasone (40 Ci/mmol) and test compounds were added at concentrations from 20 to 100 nM. After overnight incubation at 4 C, bound and unbound [^3H] steroids were separated by addition of dextran-coated charcoal and centrifugation at 2100×g for 15 min at 4 C. Supernatants containing the [^3H]-steroid receptor complexes were decanted into vials containing 4 ml OPTIFLUOR scintillation fluid (Packard Instrument Co.), vortexed, equilibrated in a liquid scintillation counter for 30 minutes and then counted for 2 minutes. The EC50 (Effective Concentration) for each standard curve and each of the compound curves was determined by entering the counting data into a four parameter sigmoidal computer program ([…] Immunoassay Data Reduction Program, Packard Instrument Co., Meriden, Conn.). Relative binding affinity (RBA) for each compound was calculated using the following equation: EC50 of standard/EC50 of test compound×100. The standards for the PR and GR assays were unlabeled progesterone and dexamethasone, respectively. The results of these experiments are summarized in Table 1, as a ratio of the relative binding affinities of each compound for the rbPR and rbGR receptors (rbPR/rbGR).

rabbit uterus = assay: anti-McGinty and anti-Clauberg assays; type: in vivo; conditions: average of anti-McGinty and anti-Clauberg results relative to CDB-2914 (=1.00)
Source text: Also given in Table 1 are the relative biological activities of the same compounds in the rabbit uterus by the anti-McGinty and anti-Clauberg assays. Compound CDB-2914 (listed at the end of the Table) was used as the control or reference compound (rabbit Biological Activity=1.00) for these experiments because results of experiments using CDB-2914 have been published before (Hild-Petito et al., 1996; Passaro et al., 1997; Reel et al., 1998; Larner et al., 2000). For the anti-McGinty test, immature female rabbits received a subcutaneous injection of 5 μg estradiol in 10% ethanol/sesame oil daily for 6 consecutive days. On day 7, animals underwent sterile abdominal surgery to ligate a 3-4 cm segment of both uterine horns. The test compound in appropriate solvent was injected intraluminally into the ligated segment of one uterine horn and vehicle alone into the other. A stimulating dose of progesterone (267 μg/day) was administered subcutaneously to each rabbit daily for the next three days to induce endometrial proliferation. All animals were sacrificed at day 10 for removal of the uterus where a segment central to the ligatures was removed and fixed in 10% neutral buffered formalin and submitted for histological processing. Five micron sections stained with hematoxylin and cosin were evaluated microscopically for the degree of endometrial glandular proliferation. The percent inhibition of endometrial proliferation for each rabbit was calculated and the mean of the group of five animals recorded. For the Anti-Clauberg test, immature female rabbits received a subcutaneous injection of 5 μg estradiol in 10% ethanol/sesame oil daily for 6 consecutive days. On day 7, animals received progesterone by subcutaneous injection (160 μg/day) and the experimental compound in appropriate vehicle orally or subcutaneously for five consecutive days. One group of rabbits received progesterone only. […] Five micron sections stained with hematoxylin and eosin were evaluated microscopically for the degree of endometrial glandular proliferation. […]

[5] = system: pain associated with endometriosis; assay: Six month endometriosis study: pain diaries and symptom surveys; type: in vivo, pre-menopausal adult women; design: key to score for intensity of pain on a bad day: 0-10 scale; 0 = no pain, 10 = extreme pain
Method: Pain reduction also occurred more rapidly than with the active control, LUCRIN. The response of pain to treatment in this study was analyzed in two ways. Patients in the study maintained daily pain diaries to record the severity and frequency of pain. In addition, at each office visit, patients filled out endometriosis symptom surveys that included a questionnaire that evaluated intensity of pain on a bad day on a scale of 0-10 with 10 being the greatest intensity. […] There appeared to be a dose dependent effect on pain reduction. […] This decrease in duration of pain was statistically better (p=0.0012) than the 117.8 (74%; standard deviation 51.4 days) pain free days achieved with LUCRIN. […] Patients on CDB-4124 12.5 mg and 25 mg doses had 115.9 (66%; standard deviation 69.2 days) and 133.6 (75%; standard deviation 27.4 days) pain free days, respectively. […] The 25 mg and 12.5 mg doses of CDB-4124 were not statistically different from LUCRIN. […] The intensity of pain was asked by the question: “On a scale of 1-10, with 0 being no pain and 10 being extreme pain, how intense was your pain on a bad day?” The mean scores for intensity of pain at baseline were 6.3 for the CDB-4124 groups and 6.1 for the LUCRIN group. […] At month three all four active treatment groups had statistically significant reduction in pain compared with baseline, with the following scores: 3.7 (p=0.03) for 12.5 mg CDB-4124, 3.2 (p=0.03) for 25 mg CDB-4124, 1.6 (p=0.015) for 50 mg CDB-4124 and 1.5 (p=0.016) for LUCRIN. These dose related reductions continued until month six when the values for pain intensity were 2.0 (p=0.008), 2.8 (p=0.023), 0.6 (p=0.004) and 0.7 (p=0.016), respectively. Two months after stopping treatment pain returned and was of similar intensity in all four treatment groups.

endometrium = assay: Six month endometriosis study: endometrial thickness (ultrasound) / endometrial proliferation; type: in vivo, pre-menopausal adult women; conditions: LUPRON once per month
Source text: Comparisons were made to both baseline and visit one ultrasound measurements of endometrial thickness. […]

[6] = Measuring serum corticosterone in rats; conditions: progesterone, CDB-4124 and RU-486 groups compared

In the case of `CC(=O)O[C@]1(C(C)=O)CC[C@H]2[C@@H]3CCC4=CC(=O)CCC4=C3[C@@H](c3ccc(N(C)C)cc3)C[C@@]21C` [CDB-2914, 17α-acetoxy-11β-(4-N,N-dimethylaminophenyl)-19-norpregna-4,9-dien-3,20-dione], the “anti-glucocorticoid receptor activity / glucocorticoid receptor binding” value [1] is reported as “moderately active in glucocorticoid receptor binding”.
With `CC(=O)OCC(=O)[C@@]1(OC(C)=O)CCC2C3CCC4=CC(=O)CCC4=C3C(c3ccc(N(C)C)cc3)C[C@@]21C` (stereo partly drawn) [CDB-4059, 21-acetoxy-17α-acetoxy-1,3-(4 N,N-dimethylaminophenyl)-19-norpregna-4,9-diene-3,20-dione] the “estrogenic, androgenic, anti-estrogenic, and anti-androgenic activities” value [2] was “lack” and the “serum cortisol versus control group” value [3] was “significantly higher levels of serum cortisol”.
With `COCC(=O)[C@@]1(OC(C)=O)CCC2C3CCC4=CC(=NO)CCC4=C3C(c3ccc(N(C)C)cc3)C[C@@]21C` (stereo partly drawn) [CDB-4205, 3-hydroxyamino-2′-methoxy-17α-acetoxy-11β-(4 N,N-dimethylaminophenyl)-19-norpregna-4,9-diene-3,20-dione] the rbPR/rbGR [4] was 1.99 and the “rabbit Biol. Act.” value (rabbit uterus) was 1.00.
For `CC(=O)OCC(=O)[C@@]1(OC(C)=O)CCC2C3CCC4=CC(=NO)CCC4=C3C(c3ccc(N(C)C)cc3)C[C@@]21C` (stereo partly drawn) [CDB-4206, 3-hydroxyamino-2′-acetoxy-17α-acetoxy-11β-(4 N,N-dimethylaminophenyl)-19-norpregna-4,9-diene-3,20-dione], the rbPR/rbGR [4] was 1.44 and the “rabbit Biol. Act.” value (rabbit uterus) was 0.68.
With `CCOCC(=O)[C@@]1(OC(C)=O)CCC2C3CCC4=CC(=NO)CCC4=C3C(c3ccc(N(C)C)cc3)C[C@@]21C` (stereo partly drawn) [CDB-4226, 3-hydroxyamino-21-ethyloxy-17α-acetoxy-11β-(4 N,N-dimethylaminophenyl)-19-norpregna-4,9-diene-3,20-dione] the rbPR/rbGR [4] was 1.51 and the “rabbit Biol. Act.” value (rabbit uterus) was 0.54.
In the case of `CCNC(=O)[C@@H]1CCCN1C(=O)[C@H](CCCNC(=N)N)NC(=O)[C@H](CC(C)C)NC(=O)[C@@H](CC(C)C)NC(=O)[C@H](Cc1ccc(O)cc1)NC(=O)[C@H](CO)NC(=O)[C@H](Cc1c[nH]c2ccccc12)NC(=O)[C@H](Cc1c[nH]cn1)NC(=O)[C@@H]1CCC(=O)N1` [LUPRON, leuprolide acetate, reference compound], the “percent pain free days over the 180 day treatment period” value ([5]; LUCRIN once per month) is reported as 74%, the “distress related to pain over the six month exposure” value ([5]; all doses, on average) is reported as “reduced distress related to pain” and the “mean score for intensity of pain on a bad day” value ([5]; baseline, scale 0-10) is reported as 6.1. The “score for intensity of pain on a bad day” value ([5]; month six, LUCRIN once per month) was 0.7, the “score for intensity of pain on a bad day” value ([5]; month three, LUCRIN once per month) was 1.5 and the “Endometrium (mm) 1st dose” value (endometrium; 1st dose) was 7.5 mm. The “Endometrium (mm) 3 months” value (endometrium; 3 months) was 2.75 mm and the “Endometrium (mm) screening” value (endometrium; screening) was 7.9 mm.
In the case of `CC#C[C@]1(O)CC[C@H]2[C@@H]3CCC4=CC(=O)CCC4=C3[C@@H](c3ccc(N(C)C)cc3)C[C@@]21C` [RU 486, 11β-[p-(Dimethylamino)phenyl]-17β-hydroxy-17-(1-propynyl)estra-4,9-dien-3-one, reference compound], the “anti-glucocorticoid receptor activity / glucocorticoid receptor binding” value [1] is reported as “moderately active in glucocorticoid receptor binding”, the “serum cortisol versus control group” value [3] is reported as “no significant difference in the levels of cortisol” and the “differences in serum corticosterone between treatment groups” value [6] is reported as “No differences in serum corticosterone”.
In the case of `CC(=O)[C@H]1CC[C@H]2[C@@H]3CCC4=CC(=O)CC[C@]4(C)[C@H]3CC[C@]12C` [progesterone, reference compound], the “differences in serum corticosterone between treatment groups” value [6] is reported as “No differences in serum corticosterone”.
